From patent publication US11439707B2, “Hypocrellin derivative substituted both in a peri-position and in 2-position by amino, preparation method, and application thereof” (priority 2017, dated 2022) come the findings set out here.

The structures appear in SMILES notation.

A short description of data set [1]: singlet oxygen efficiency test, reference rose bengal. The class given is physicochemical.
Data set [2] in a line: absorption spectrum (maximum absorption wavelength, molar extinction coefficient). It is filed as physicochemical.

`COc1c(NC2CCC(C(=O)O)CC2)c2c(=O)cc(OC)c3c4c(OC)cc(=O)c5c(O)c(NC6CCC(C(=O)O)CC6)c6c(c(c1C(C(C)=O)C(C)=C6)c23)c54` (stereo not drawn) [HB-14b] displayed a singlet oxygen yield in data set [1] of 24%. Besides, in data set [2], the maximum absorption wavelength is recorded as 623 nm and the molar extinction coefficient was 27,000 M^−1cm^−1.

Consider `COc1c2c3c4c(c(NC5CCC(O)CC5)c(=O)c5c(NC6CCC(O)CC6)cc(OC)c(c6c(OC)cc(O)c(c1=O)c63)c54)C=C(C)C2C(C)=O` (stereo not drawn) [HB-17c], for which the singlet oxygen yield in data set [1] is reported as 23%. In addition, in data set [2], the maximum absorption wavelength is reported as 622 nm and the molar extinction coefficient is on record as 26,000 M^−1cm^−1.

For `COc1c(O)c2c(=O)cc(OC)c3c4c(OC)cc(=O)c5c(NC6CCCCC6C(=O)O)c(NC6CCCCC6C(=O)O)c6c(c(c1C(C(C)=O)C(C)=C6)c23)c54` (stereo not drawn) [HB-16a], the singlet oxygen yield in data set [1] was determined as 25%. Further, in data set [2], the maximum absorption wavelength stood at 620 nm and the molar extinction coefficient was 25,500 M^−1cm^−1.

Consider `COc1c2c3c4c(c(NCCCC(=O)OCCCCCC[N+](C)(C)C)c(=O)c5c(NCCCC(=O)OCCCCCC[N+](C)(C)C)cc(OC)c(c6c(OC)cc(O)c(c1=O)c63)c54)C=C(C)C2` [HC-8c-C6-N^+], for which the singlet oxygen yield in data set [1] amounted to 35%. Further, in data set [2], the maximum absorption wavelength was determined as 632 nm and the molar extinction coefficient is 32,500 M^−1cm^−1.

Regarding `COc1c2c3c4c(c(NCCCC(=O)NCCCC[N+](C)(C)C)c(=O)c5c(O)cc(OC)c(c6c(OC)cc(NCCCC(=O)NCCCC[N+](C)(C)C)c(c1=O)c63)c54)C=C(C)C2` [HC-8d-NH—C4-N^+], the singlet oxygen yield in data set [1] was 33%. Besides, in data set [2], the maximum absorption wavelength was determined as 624 nm and the molar extinction coefficient is reported as 30,500 M^−1cm^−1.

Consider `COC(=O)C1CCC(CNc2c3c4c5c(c(OC)c(=O)c6c(NCC7CCC(C(=O)OC)CC7)cc(OC)c(c7c(OC)cc(O)c(c2=O)c74)c65)C(C(C)=O)C(C)=C3)CC1` (stereo not drawn) [HB-13d-AcE], for which, in data set [1], the singlet oxygen yield turned out to be 25%. In data set [2], the maximum absorption wavelength turned out to be 623 nm and the molar extinction coefficient was 28,000 M^−1cm^−1.

The molecule `COCCOCCOCCOCCOCCNC(=O)C1CCC(CNc2c(O)c3c(=O)cc(OC)c4c5c(OC)cc(=O)c6c(NCC7CCC(C(=O)NCCOCCOCCOCCOCCOC)CC7)c(OC)c7c(c(c2C=C(C)C7)c34)c65)CC1` (stereo not drawn) [HC-13b-NH-PEG4] came in with a singlet oxygen yield in data set [1] of 32%. Besides, in data set [2], the maximum absorption wavelength is 624 nm and the molar extinction coefficient was 30,000 M^−1cm^−1.

As to `COc1c(NC(CS)C(=O)O)c2c(=O)cc(OC)c3c4c(OC)cc(=O)c5c(O)c(NC(CS)C(=O)O)c6c(c(c1C(C(C)=O)C(C)=C6)c23)c54` (stereo not drawn) [HB-25b], the singlet oxygen yield in data set [1] came to 20%. For the same molecule, in data set [2], the maximum absorption wavelength amounted to 629 nm and the molar extinction coefficient is reported as 20,500 M^−1cm^−1.

In data set [1], `COc1c(NCC[N+]23CC[N+](C)(CC2)CC3)c2c(=O)cc(OC)c3c4c(OC)cc(=O)c5c(O)c(NCC[N+]67CC[N+](C)(CC6)CC7)c6c(c(c1C(C(C)=O)C(C)=C6)c23)c54` (stereo not drawn) [HB-41b] gave a singlet oxygen yield of 32%. In data set [2], the maximum absorption wavelength is 624 nm and the molar extinction coefficient is 31,500 M^−1cm^−1.

Molecule `COc1c(NCCOCCO)c2c(=O)cc(OC)c3c4c(OC)cc(=O)c5c(O)c(NCCOCCO)c6c(c(c1C(C(C)=O)C(C)=C6)c23)c54` (stereo not drawn) [HB-1b] yielded a singlet oxygen yield in data set [1] of 36%. Also, in data set [2], the maximum absorption wavelength is 622 nm and the molar extinction coefficient is reported as 28,000 M^−1cm^−1.

With `COc1c(O)c2c(=O)cc(OC)c3c4c(OC)cc(=O)c5c(NC6CCCC6C(=O)O)c(NC6CCCC6C(=O)O)c6c(c(c1C(C(C)=O)C(C)=C6)c23)c54` (stereo not drawn) [HB-21a], the singlet oxygen yield in data set [1] stood at 20%. In addition, in data set [2], the maximum absorption wavelength is 620 nm and the molar extinction coefficient was 23,500 M^−1cm^−1.

The molecule `COCCOCCOCCOCCOCCOCCOCCC(=O)OC1CCC(Nc2c3c4c5c(c(OC)c(=O)c6c(NC7CCC(OC(=O)CCOCCOCCOCCOCCOCCOCCOC)C7)cc(OC)c(c7c(OC)cc(O)c(c2=O)c74)c65)C(C(C)=O)C(C)=C3)C1` (stereo not drawn) [HB-20d-PEG6] showed a singlet oxygen yield in data set [1] of 32%. Also, in data set [2], the maximum absorption wavelength is reported as 630 nm and the molar extinction coefficient is 30,500 M^−1cm^−1.

In turn, `COc1c2c3c4c(c(NCCCCS(=O)(=O)O)c(=O)c5c(O)cc(OC)c(c6c(OC)cc(NCCCCS(=O)(=O)O)c(c1=O)c63)c54)C=C(C)C2C(C)=O` (stereo not drawn) [HB-11d-C4-SO3H] displayed a singlet oxygen yield in data set [1] of 32%. In data set [2], the maximum absorption wavelength was determined as 626 nm and the molar extinction coefficient is on record as 30,500 M^−1cm^−1.

Regarding `COc1c2c3c4c(c(NC(CCC(=O)O)C(=O)O)c(=O)c5c(O)cc(OC)c(c6c(OC)cc(NC(CCC(=O)O)C(=O)O)c(c1=O)c63)c54)C=C(C)C2C(C)=O` (stereo not drawn) [HB-28d], the singlet oxygen yield in data set [1] is listed as 18%. For the same molecule, in data set [2], the maximum absorption wavelength stood at 620 nm and the molar extinction coefficient is on record as 20,500 M^−1cm^−1.

In turn, `COCCOCCOCCOCCOCCOCCOC(=O)C1CCCCC1Nc1c2c3c4c(c(OC)c(=O)c5c(NC6CCCCC6C(=O)OCCOCCOCCOCCOCCOCCOC)cc(OC)c(c6c(OC)cc(O)c(c1=O)c63)c54)C(C(C)=O)C(C)=C2` (stereo not drawn) [HB-16d-PEG6] gave a singlet oxygen yield in data set [1] of 33%. Further, in data set [2], the maximum absorption wavelength came to 628 nm and the molar extinction coefficient is 32,000 M^−1cm^−1.

In data set [1], `COc1c2c3c4c(c(NCCCCCC(=O)O)c(=O)c5c(NCCCCCC(=O)O)cc(OC)c(c6c(OC)cc(O)c(c1=O)c63)c54)C=C(C)C2` [HC-9c] registered a singlet oxygen yield of 29%. Also, in data set [2], the maximum absorption wavelength worked out at 628 nm and the molar extinction coefficient is 27,000 M^−1cm^−1.

On to `COc1c(O)c2c(=O)cc(OC)c3c4c(OC)cc(=O)c5c(NC(CCC(=O)O)C(=O)O)c(NC(CCC(=O)O)C(=O)O)c6c(c(c1C(C(C)=O)C(C)=C6)c23)c54` (stereo not drawn) [HB-28a], for which the singlet oxygen yield in data set [1] is listed as 18%. Also, in data set [2], the maximum absorption wavelength turned out to be 621 nm and the molar extinction coefficient was 20,500 M^−1cm^−1.

`COc1c(NCS(=O)(=O)O)c2c(=O)cc(OC)c3c4c(OC)cc(=O)c5c(O)c(NCCCS(=O)(=O)O)c6c(c(c1CC(C)=C6)c23)c54` [HC-45b] had a singlet oxygen yield in data set [1] of 20%. In addition, in data set [2], the maximum absorption wavelength is recorded as 618 nm and the molar extinction coefficient is 21,500 M^−1cm^−1.

Consider `CCCCCCNc1c(O)c2c(=O)cc(OC)c3c4c(OC)cc(=O)c5c(NCCCCCC)c(OC)c6c(c(c1C=C(C)C6)c23)c54` [HC-34b], for which, in data set [1], the singlet oxygen yield is 32%. Moreover, in data set [2], the maximum absorption wavelength was determined as 620 nm and the molar extinction coefficient is 31,500 M^−1cm^−1.

For the molecule `COCCOCCOCCOCCOCCOCCOC(=O)CCCCCNc1c2c3c4c(c(OC)c(=O)c5c(O)cc(OC)c(c6c(OC)cc(NCCCCCC(=O)OCCOCCOCCOCCOCCOCCOC)c(c1=O)c63)c54)CC(C)=C2` [HC-9c-PEG6], the singlet oxygen yield in data set [1] was determined as 36%. Further, in data set [2], the maximum absorption wavelength is 628 nm and the molar extinction coefficient was 33,000 M^−1cm^−1.

`CCCNc1c2c3c4c(c(OC)c(=O)c5c(O)cc(OC)c(c6c(OC)cc(NCCC)c(c1=O)c63)c54)C(C(C)=O)C(C)=C2` (stereo not drawn) [HB-33c] gave a singlet oxygen yield in data set [1] of 35%. Moreover, in data set [2], the maximum absorption wavelength is 618 nm and the molar extinction coefficient is 34,500 M^−1cm^−1.

In turn, `CCCNc1c(NCCC)c2c(=O)cc(OC)c3c4c(OC)cc(=O)c5c(O)c(OC)c6c(c(c1C=C(C)C6C(C)=O)c23)c54` (stereo not drawn) [HB-33a] registered a singlet oxygen yield in data set [1] of 30%. Besides, in data set [2], the maximum absorption wavelength came to 618 nm and the molar extinction coefficient was 32,500 M^−1cm^−1.

The molecule `COc1c2c3c4c(c(NC5CCCC(C(=O)O)C5)c(=O)c5c(O)cc(OC)c(c6c(OC)cc(NC7CCCC(C(=O)O)C7)c(c1=O)c63)c54)C=C(C)C2C(C)=O` (stereo not drawn) [HB-15d] came in with a singlet oxygen yield in data set [1] of 24%. Also, in data set [2], the maximum absorption wavelength was 623 nm and the molar extinction coefficient is given as 27,000 M^−1cm^−1.

In data set [1], `COCCOCCC(=O)OCCNc1c(NCCOC(=O)CCOCCOC)c2c(=O)cc(OC)c3c4c(OC)cc(=O)c5c(O)c(OC)c6c(c(c1C=C(C)C6C(C)=O)c23)c54` (stereo not drawn) [HB-2a-PEG1] registered a singlet oxygen yield of 30%. Besides, in data set [2], the maximum absorption wavelength worked out at 620 nm and the molar extinction coefficient was 30,500 M^−1cm^−1.

With `COc1c(O)c2c(=O)cc(OC)c3c4c(OC)cc(=O)c5c(NC(C(=O)O)C(C)C)c(NC(C(=O)O)C(C)C)c6c(c(c1C(C(C)=O)C(C)=C6)c23)c54` (stereo not drawn) [HB-22a], the singlet oxygen yield in data set [1] was 18%. Further, in data set [2], the maximum absorption wavelength amounted to 621 nm and the molar extinction coefficient is given as 21,000 M^−1cm^−1.

In the case of `COCCOCCOCCOCCOCCOCCOCCOCCOCCOCCOCCOCCOC(=O)CCCNc1c2c3c4c(c(OC)c(=O)c5c(O)cc(OC)c(c6c(OC)cc(NCCCC(=O)OCCOCCOCCOCCOCCOCCOCCOCCOCCOCCOCCOCCOC)c(c1=O)c63)c54)C(C(C)=O)C(C)=C2` (stereo not drawn) [HB-8c-PEG12], the singlet oxygen yield in data set [1] is listed as 36%. In addition, in data set [2], the maximum absorption wavelength is recorded as 628 nm and the molar extinction coefficient is given as 33,000 M^−1cm^−1.

As to `COCCOCCOCCOCCOCCOCCOCCOCCOCCOCCOCCOCCOCCC(=O)OCCNc1c2c3c4c(c(OC)c(=O)c5c(O)cc(OC)c(c6c(OC)cc(NCCOC(=O)CCOCCOCCOCCOCCOCCOCCOCCOCCOCCOCCOCCOCCOC)c(c1=O)c63)c54)CC(C)=C2` [HC-2c-PEG12], the singlet oxygen yield in data set [1] was 34%. In addition, in data set [2], the maximum absorption wavelength was 630 nm and the molar extinction coefficient is 32,500 M^−1cm^−1.

As to `COc1c2c3c4c(c(NCC5CCC(C(=O)NCCCCCCS(=O)(=O)O)CC5)c(=O)c5c(NCC6CCC(C(=O)NCCCCCCS(=O)(=O)O)CC6)cc(OC)c(c6c(OC)cc(O)c(c1=O)c63)c54)C=C(C)C2` (stereo not drawn) [HC-13c-C6-SO3H], in data set [1], the singlet oxygen yield is on record as 36%. Also, in data set [2], the maximum absorption wavelength was 630 nm and the molar extinction coefficient is 33,000 M^−1cm^−1.

On to `COCCOCCOCCOCCOCCOCCOCCOCCOCCOCCOCCOCCOC(=O)C1CCC(Nc2c3c4c5c(c(OC)c(=O)c6c(O)cc(OC)c(c7c(OC)cc(NC8CCC(C(=O)OCCOCCOCCOCCOCCOCCOCCOCCOCCOCCOCCOCCOC)CC8)c(c2=O)c74)c65)C(C(C)=O)C(C)=C3)CC1` (stereo not drawn) [HB-14c-PEG12], for which the singlet oxygen yield in data set [1] worked out at 38%. In data set [2], the maximum absorption wavelength is recorded as 628 nm and the molar extinction coefficient is 33,500 M^−1cm^−1.
